The structures appear in SMILES notation. Where a name gives a salt, the structure may show the parent alone.

The target in this assay is T1, human mGluR5 (Homo sapiens, UniProt P41594).
T1 construct: expressed in transfected cells
T1 sequence (P41594 21-1212): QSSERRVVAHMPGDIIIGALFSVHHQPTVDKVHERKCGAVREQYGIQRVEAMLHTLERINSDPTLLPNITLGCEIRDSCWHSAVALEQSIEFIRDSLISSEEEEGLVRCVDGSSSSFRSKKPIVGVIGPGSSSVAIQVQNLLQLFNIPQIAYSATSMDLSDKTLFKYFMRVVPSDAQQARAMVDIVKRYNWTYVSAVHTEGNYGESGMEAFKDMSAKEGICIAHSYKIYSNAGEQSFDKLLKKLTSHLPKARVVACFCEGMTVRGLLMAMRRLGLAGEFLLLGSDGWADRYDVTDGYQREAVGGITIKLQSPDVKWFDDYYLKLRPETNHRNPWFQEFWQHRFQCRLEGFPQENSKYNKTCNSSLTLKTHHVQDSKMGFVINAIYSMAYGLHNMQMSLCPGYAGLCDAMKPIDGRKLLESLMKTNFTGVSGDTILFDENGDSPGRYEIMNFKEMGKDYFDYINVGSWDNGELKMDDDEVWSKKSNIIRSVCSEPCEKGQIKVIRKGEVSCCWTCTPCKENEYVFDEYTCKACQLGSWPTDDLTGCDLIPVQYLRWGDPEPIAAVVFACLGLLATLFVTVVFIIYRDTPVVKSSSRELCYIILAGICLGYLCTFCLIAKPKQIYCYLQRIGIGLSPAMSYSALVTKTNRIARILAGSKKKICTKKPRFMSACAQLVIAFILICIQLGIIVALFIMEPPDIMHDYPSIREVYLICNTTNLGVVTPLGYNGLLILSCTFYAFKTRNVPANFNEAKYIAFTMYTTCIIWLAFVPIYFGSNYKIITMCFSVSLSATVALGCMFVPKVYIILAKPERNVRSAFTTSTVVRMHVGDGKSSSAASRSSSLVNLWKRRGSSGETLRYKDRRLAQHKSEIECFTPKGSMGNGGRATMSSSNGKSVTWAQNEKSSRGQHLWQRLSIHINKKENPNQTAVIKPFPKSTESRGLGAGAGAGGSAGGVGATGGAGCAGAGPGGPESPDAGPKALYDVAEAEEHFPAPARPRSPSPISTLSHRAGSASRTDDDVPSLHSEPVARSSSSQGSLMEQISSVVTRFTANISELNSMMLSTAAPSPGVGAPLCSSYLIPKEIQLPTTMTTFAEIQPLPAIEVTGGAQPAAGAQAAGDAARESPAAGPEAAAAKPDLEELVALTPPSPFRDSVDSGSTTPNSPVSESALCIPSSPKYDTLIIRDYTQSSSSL
As to the kind of experiment: Experiment for receptor function of mGluR5 (Ca2+-dependent fluorescence, FLIPR, CHO-K1 cells stably expressing human mGluR5). Format: cell-based. As to conditions: L-glutamic acid 10 μM, Fluo-4 fluorescence. As to the method:
Stable expression cells in which the human mGluR5 gene had been introduced into a Chinese hamster ovary cell (CHO-K1) were used for evaluation. The cells were suspended in a growth medium (MEM-α (D8042, available from Sigma) containing 10% inactivated FBS (Cat. No. 171012, available from CCB) and 2 mM glutamax (Cat. No. 35050, available from GIBCO)) and seeded on a black clear-bottom 96-well plate at 100,000 cells per well. One day after seeding, the medium was replaced by a medium (Hanks' balanced salt solution (HBSS buffer solution) (20 mM HEPES, 2.5 mM probencide (165-15472, available from Wako Pure Chemical Industries, Ltd.), and 10×HBSS (14065-056, available from Gibco) diluted 10 times, pH 7.4)) containing a calcium-sensitive dye Fluo-4 AM at a final concentration of […] (F312, available from Dojindo Laboratories) and Pluronic F-127 at a final concentration of 0.0145% (P-2443, available from Sigma), followed by incubation at 37° C. for one hour, thereby loading Fluo-4 AM into the cells.
Subsequently, the cells were washed twice with an HBSS buffer solution, to which was subsequently added the same buffer solution. Twenty minutes thereafter, the plate was transferred into a fluorescence screening system (FLIPR TETRA, available from Molecular Devices, LLC) and measured for a Ca^2+-dependent fluorescence change in the cells.
First of all, a fluorescence baseline was measured, and thereafter, fluorescence measurement was performed for 2 minutes while adding a test substance, an excessive amount of 6-methyl-2-(phenylethynyl)pyridine (hereinafter referred to as “MPEP”) (final concentration: 10 μM), or the medium. Thereafter, fluorescence measurement was carried out for one minute while adding L-glutamic acid (final concentration: 10 μM).
While taking a fluorescence intensity caused by L-glutamic acid as 100% and a fluorescence intensity caused by L-glutamic acid in the presence of MPEP as 0%, respectively, function inhibitory activity against human mGluR5 was evaluated from the fluorescence intensity caused by L-glutamic acid in the presence of the test substance at each concentration, and an IC50 value was estimated according to a logistic equation (SAS System).
As to `Cc1ncc(-c2cc(OCc3ccccn3)nc3c2CCCC3)s1` [Example 225, 4-(2-Methyl-1,3-thiazol-5-yl)-2-(pyridin-2-ylmethoxy)-5,6,7,8-tetrahydroquinoline hydrochloride], inhibition was half-maximal at 0.102 µM (IC50).

Consider `Cc1cncc(-c2cc(OCc3ccccn3)nc3c2CCCC3)n1` [Example 201, 4-(6-Methylpyrazin-2-yl)-2-(pyridin-2-ylmethoxy)-5,6,7,8-tetrahydroquinoline], for which the midpoint of inhibition, the IC50, lay at 0.0362 µM.

As to `N#Cc1ccc(-c2cc(OCc3ccccn3)nc3c2CCC3)cc1F` [Example 66, 2-Fluoro-4-[2-(pyridin-2-ylmethoxy)-6,7-dihydro-5H-cyclopenta[b]pyridin-4-yl]benzonitrile], the IC50 was found to be 0.108 µM.

`Cc1cc(COc2cc(-c3cnc(C)nc3)c3c(n2)CCCC3)ccn1` [Example 286, 2-[(2-Methylpyridin-4-yl)methoxy]-4-(2-methylpyrimidin-5-yl)-5,6,7,8-tetrahydroquinoline] displayed a concentration for half-maximal inhibition (IC50) of 0.095 µM.

`Cc1ncc(-c2cc(OCc3ccc(C#N)cc3)nc3c2CCC3)cn1` [Example 261, 4-({[4-(2-Methylpyrimidin-5-yl)-6,7-dihydro-5H-cyclopenta[b]pyridin-2-yl]oxy}methyl)benzonitrile]: the IC50 was 0.064 µM.

Consider `Nc1cncc(-c2cc(OCc3ccccn3)nc3c2CCCC3)c1` [Example 124, 5-[2-(Pyridin-2-ylmethoxy)-5,6,7,8-tetrahydroquinolin-4-yl]pyridin-3-amine], for which it took 0.0248 µM to reach half-maximal inhibition (IC50).

For `COCc1cncc(-c2cc(OCc3ccccn3)nc3c2CCCC3)c1` [Example 123, 4-[5-(Methoxymethyl)pyridin-3-yl]-2-(pyridin-2-ylmethoxy)-5,6,7,8-tetrahydroquinoline hydrochloride], the IC50 came out at 0.0588 µM.

Regarding `N#Cc1ccc(-c2cc(OCc3ccccn3)nc3c2CCC3)cn1` [Example 4, 5-[2-(Pyridin-2-ylmethoxy)-6,7-dihydro-5H-cyclopenta[b]pyridin-4-yl]pyridine-2-carbonitrile hydrochloride], the IC50 amounted to 0.147 µM.

As for `Cc1ncc(-c2cc(OCc3ccnc(C#N)c3)nc3c2CCCC3)cn1` [Example 287, 4-({[4-(2-Methylpyrimidin-5-yl)-5,6,7,8-tetrahydroquinolin-2-yl]oxy}methyl)pyridine-2-carbonitrile], the IC50 was 0.146 µM.

Regarding `c1csc(COc2cc(-c3cncnc3)c3c(n2)CCC3)c1` [Example 34, 4-(Pyrimidin-5-yl)-2-(thiophen-2-ylmethoxy)-6,7-dihydro-5H-cyclopenta[b]pyridine], the 50% inhibitory concentration (IC50) was found to be 0.015 µM.

As to `N#Cc1ccnc(COc2cc(-c3cncnc3)c3c(n2)CCCC3)c1` [Example 151, 2-({[4-(Pyrimidin-5-yl)-5,6,7,8-tetrahydroquinolin-2-yl]oxy}methyl)pyridine-4-carbonitrile], 0.439 µM corresponded to half-maximal inhibition (IC50).

For the molecule `COCc1cccc(COc2cc(-c3cncnc3)c3c(n2)CCCC3)n1` [Example 160, 2-{[6-(Methoxymethyl)pyridin-2-yl]methoxy}-4-(pyrimidin-5-yl)-5,6,7,8-tetrahydroquinoline hydrochloride], the half-inhibitory concentration (IC50) is 0.152 µM.

With `Cc1cccnc1COc1cc(-c2cncnc2)c2c(n1)CCCC2` [Example 153, 2-[(3-Methylpyridin-2-yl)methoxy]-4-(pyrimidin-5-yl)-5,6,7,8-tetrahydroquinoline], half-maximal inhibition (IC50) was put at 0.316 µM.

As for `Cc1cccc(COc2cc(-c3cccnc3)c3c(n2)CCCC3)n1` [Example 83, 2-[(6-Methylpyridin-2-yl)methoxy]-4-(pyridin-3-yl)-5,6,7,8-tetrahydroquinoline], the IC50 is 0.0162 µM.

Molecule `Cc1ncc(-c2cc(OCc3cccc(F)c3)nc3c2CCC3)cn1` [Example 266, 2-[(3-Fluorobenzyl)oxy]-4-(2-methylpyrimidin-5-yl)-6,7-dihydro-5H-cyclopenta[b]pyridine] showed an IC50 of 0.071 µM.

The molecule `N#Cc1cncc(-c2cc(OCc3ccccn3)nc3c2CCC3)n1` [Example 54, 6-[2-(Pyridin-2-ylmethoxy)-6,7-dihydro-5H-cyclopenta[b]pyridin-4-yl]pyrazine-2-carbonitrile hydrochloride] had an IC50 of 0.02 µM.

The molecule `Fc1ccnc(COc2cc(-c3cncnc3)c3c(n2)CCCC3)c1` [Example 146, 2-[(4-Fluoropyridin-2-yl)methoxy]-4-(pyrimidin-5-yl)-5,6,7,8-tetrahydroquinoline] displayed a 50% inhibitory concentration (IC50) of 0.176 µM.

In the case of `c1cncc(-c2cc(OCc3ncco3)nc3c2CCCC3)c1` [Example 91, 2-(1,3-Oxazol-2-ylmethoxy)-4-(pyridin-3-yl)-5,6,7,8-tetrahydroquinoline], the half-maximal inhibitory concentration (IC50) worked out at 0.0169 µM.

Take `OCc1cncc(-c2cc(OCc3ccccn3)nc3c2CCCC3)c1` [Example 122, {5-[2-(Pyridin-2-ylmethoxy)-5,6,7,8-tetrahydroquinolin-4-yl]pyridin-3-yl}methanol hydrochloride]: the IC50 was 0.0727 µM.

As to `Cc1ccnc(COc2cc(-c3cccnc3)c3c(n2)CCCC3)c1` [Example 85, 2-[(4-Methylpyridin-2-yl)methoxy]-4-(pyridin-3-yl)-5,6,7,8-tetrahydroquinoline], the midpoint of inhibition, the IC50, lay at 0.178 µM.

`Cc1ncc(-c2cc(OCc3ccc(F)cn3)nc3c2CCCC3)cn1` [Example 186, 2-[(5-Fluoropyridin-2-yl)methoxy]-4-(2-methylpyrimidin-5-yl)-5,6,7,8-tetrahydroquinoline]: half-maximal inhibition (IC50) required 0.026 µM.

`N#Cc1ccc(COc2cc(-c3ccnc(F)c3)c3c(n2)CCC3)nc1` [Example 252, 6-({[4-(2-Fluoropyridin-4-yl)-6,7-dihydro-5H-cyclopenta[b]pyridin-2-yl]oxy}methyl)pyridine-3-carbonitrile] returned a half-maximal inhibitory concentration (IC50) of 0.0135 µM.

As to `Cc1ncc(-c2cc(OCc3nc(C#N)co3)nc3c2CCC3)cn1` [Example 267, 2-({[4-(2-Methylpyrimidin-5-yl)-6,7-dihydro-5H-cyclopenta[b]pyridin-2-yl]oxy}methyl)-1,3-oxazole-4-carbonitrile], the concentration for half-maximal inhibition (IC50) is 0.055 µM.

Take `Cc1cc(COc2cc(-c3cncnc3)c3c(n2)CCC3)ccn1` [Example 256, 2-[(2-Methylpyridin-4-yl)methoxy]-4-(pyrimidin-5-yl)-6,7-dihydro-5H-cyclopenta[b]pyridine]: the half-inhibitory concentration (IC50) was found to be 0.0628 µM.

Molecule `C=C1CCc2c(-c3cncnc3)cc(OCc3ccccn3)nc21` [Example 237, 7-Methylidene-2-(pyridin-2-ylmethoxy)-4-(pyrimidin-5-yl)-6,7-dihydro-5H-cyclopenta[b]pyridine] returned a 50% inhibitory concentration (IC50) of 0.0345 µM.

`Cc1ncc(-c2cc(OCc3ccccn3)nc3c2CCCC3)cn1` [Example 168, 4-(2-Methylpyrimidin-5-yl)-2-(pyridin-2-ylmethoxy)-5,6,7,8-tetrahydroquinoline]: the IC50 was determined as 0.153 µM.

In the case of `N#Cc1ccc(COc2cc(-c3cnc(N)nc3)c3c(n2)CCC3)cc1` [Example 264, 4-({[4-(2-Aminopyrimidin-5-yl)-6,7-dihydro-5H-cyclopenta[b]pyridin-2-yl]oxy}methyl)benzonitrile], the half-maximal inhibitory concentration (IC50) was determined as 0.126 µM.

In the case of `Fc1cccc(COc2cc(-c3cncnc3)c3c(n2)CCC3)n1` [Example 24, 2-[(6-Fluoropyridin-2-yl)methoxy]-4-(pyrimidin-5-yl)-6,7-dihydro-5H-cyclopenta[b]pyridine], the IC50 was found to be 0.036 µM.

As for `Oc1cc(F)cc(-c2cc(OCc3ccccn3)nc3c2CCC3)c1` [Example 68, 3-Fluoro-5-[2-(pyridin-2-ylmethoxy)-6,7-dihydro-5H-cyclopenta[b]pyridin-4-yl]phenol], the half-maximal inhibitory concentration (IC50) turned out to be 0.092 µM.

`N#Cc1cccc(COc2cc(-c3cncnc3)c3c(n2)CCCC3)c1` [Example 279, 3-({[4-(Pyrimidin-5-yl)-5,6,7,8-tetrahydroquinolin-2-yl]oxy}methyl)benzonitrile] came in with an IC50 of 0.108 µM.

Molecule `Fc1cc(-c2cc(OCc3ccccn3)nc3c2CCC3)ccn1` [Example 73, 4-(2-Fluoropyridin-4-yl)-2-(pyridin-2-ylmethoxy)-6,7-dihydro-5H-cyclopenta[b]pyridine] had an IC50 of 0.0162 µM.

`Cc1cccc(COc2cc(-c3cncnc3)c3c(n2)CCCC3)n1` [Example 152, 2-[(6-Methylpyridin-2-yl)methoxy]-4-(pyrimidin-5-yl)-5,6,7,8-tetrahydroquinoline] had an IC50 of 0.0448 µM.

In turn, `COC(=O)c1cncc(-c2cc(OCc3ccccn3)nc3c2CCCC3)c1` [Example 116, Methyl 5-[2-(pyridin-2-ylmethoxy)-5,6,7,8-tetrahydroquinolin-4-yl]pyridine-3-carboxylate] displayed a concentration for half-maximal inhibition (IC50) of 0.133 µM.

`Fc1ccc(COc2cc(-c3cncnc3)c3c(n2)CCC3)c(F)c1` [Example 18, 2-[(2,4-Difluorobenzyl)oxy]-4-(pyrimidin-5-yl)-6,7-dihydro-5H-cyclopenta[b]pyridine] gave a 50% inhibitory concentration (IC50) of 0.105 µM.

One may read the IC50 as the midpoint of a concentration-inhibition curve. A higher IC50 goes with weaker potency.

Values taken from patent US20150225404A1, “PYRIDINE DERIVATIVE AND MEDICINE” (NIPPON SHINYAKU CO., LTD., priority 2012, published 2015).
